Nine compounds from patent publication US20170240535A1, “HDAC1/2 INHIBITORS FOR THE TREATMENT OF NEURODEGENERATIVE AND/OR COGNITIVE DISORDERS” (Regenacy Pharmaceuticals, LLC, priority 2016, published 2017) can be followed below.

Data set [1] is described as follows: Comparison of brain penetrance between quinolines and isoquinolines (IP dosing). Type of data set: in vivo. The note with it: IP 5 mg/kg, C57Bl/6 mice; for Kp / AUC: mouse; for Kp: brain/plasma, read-out: ratio (AUC brain / AUC plasma); for AUC: plasma. As for the experimental part: Comparator B (see Table 7) and Compound 2 were dosed in C57Bl/6 mice at 5 mg/kg in 10% DMAC/10% Solutol HS15/80% saline. Comparator A (see Table 7) was dosed at 5 mg/kg in 5% dextrose/water. All compounds were dosed IP. Mice were sacrificed at 5, 15, 30 minutes and 1, 2, 4, 8 and 24 hours after dosing. Plasma concentration of compound was determined at all time points by LC/MS/MS. Brain concentration was determined at 1, 4, 8 and 24 hours after dosing. The AUC was calculated using WinNonLin software. The results are shown in Table 7, where plasma AUC is expressed as hr*ng/mL and brain AUC is expressed as hr*ng/g.

The nature of data set [2]: Pharmacokinetics in plasma and brain after IV administration. Type of data set: in vivo. The note with it: IV 1 mg/kg, male C57BL/6 mice; for Kp / Cmax / Tmax / half-life / AUC(0-inf) / AUC(0-t) / MRT inf / clearance / Vd: mouse; for Kp: brain/plasma, read-out: AUCbrain/AUCplasma; for Vd: read-out: Vss. As for the experimental part:
Male C57Bl/6 mice were fasted overnight. Compounds of the invention were dissolved in dimethyl acetamide at 10 times the final concentration, then Solutol HS 15 (BASF) was added to a final concentration of 10%. Finally 80% saline was added and vortexed to achieve a clear solution. Fifteen animals were injected via the tail vein with 1 mg/kg compound. Blood was collected via retro orbital puncture into K2EDTA tubes at 5 minutes, 15 minutes, 30 minutes, 1 hour, 2 hours, 4 hours, 8 hours and 24 hours after dosing. The blood was centrifuged at 2000 g for 5 minutes at 4° C. to obtain plasma. The plasma was extracted with acetonitrile and the level of compound was analyzed by LC/MS/MS. The level of compound in plasma was calculated from a standard curve in mouse plasma. For brain levels, animals were sacrificed at 5 minutes, 15 minutes, 1 hour, 4 hours and 24 hours. Brains were removed and homogenized in acetonitrile and extracted. The level of compound in brain was calculated from a standard curve in mouse brain tissue. The IV clearance and area under the curve were calculated using WinNonLin software. The ratio of area under the curve for plasma and brain samples was calculated to produce the brain/plasma ratio.

For data set [3], the target named is T1, HDAC1 (Homo sapiens, UniProt Q13547).
T1 construct: purchased BPS Biosciences
T1 sequence (Q13547 whole entry): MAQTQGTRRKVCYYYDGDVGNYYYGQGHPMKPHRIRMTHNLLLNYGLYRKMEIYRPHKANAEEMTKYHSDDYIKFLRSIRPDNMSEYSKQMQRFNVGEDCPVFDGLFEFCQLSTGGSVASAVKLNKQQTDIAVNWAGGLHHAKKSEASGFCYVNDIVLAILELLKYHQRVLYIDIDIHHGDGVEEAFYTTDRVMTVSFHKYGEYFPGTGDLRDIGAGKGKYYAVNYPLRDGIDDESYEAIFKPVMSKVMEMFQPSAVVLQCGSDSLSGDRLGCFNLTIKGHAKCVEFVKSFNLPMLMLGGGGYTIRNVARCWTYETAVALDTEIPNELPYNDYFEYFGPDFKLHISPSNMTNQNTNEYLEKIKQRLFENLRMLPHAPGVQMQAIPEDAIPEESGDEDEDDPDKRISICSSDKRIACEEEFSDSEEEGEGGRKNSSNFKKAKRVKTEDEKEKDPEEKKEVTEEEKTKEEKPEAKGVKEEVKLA
Kind of data set: HDAC enzyme assay, HDAC1. It is filed as biochemical. The note with it: enzyme and compound incubated 24 hours at room temperature. As for the experimental part:
(§1) Compounds for testing were diluted in DMSO to 50 fold the final concentration and a ten point three fold dilution series was made. The compounds were diluted in assay buffer (50 mM HEPES, pH 7.4, 100 mM KCl, 0.001% Tween-20, 0.05% BSA, 20 μM TCEP) to 6 fold their final concentration. The HDAC enzymes (purchased from BPS Biosciences) were diluted to 1.5 fold their final concentration in assay buffer. The tripeptide substrate and trypsin at 0.05 μM final concentration were diluted in assay buffer at 6 fold their final concentration. The final enzyme concentrations used in these assays were 3.3 ng/ml (HDAC1), 0.2 ng/ml (HDAC2) and 0.08 ng/ml (HDAC3). The final substrate concentrations used were 16 μM (HDAC1), 10 μM (HDAC2) and 17 μM (HDAC3). Five μl of compound and 20 μl of enzyme were added to wells of a black, opaque 384 well plate in duplicate. Enzyme and compound were incubated together at room temperature for 24 hours. Five μl of substrate was added to each well, the plate was shaken for 60 seconds and placed into a Victor 2 microtiter plate reader. The development of fluorescence was monitored for 60 min and the linear rate of the reaction was calculated. The IC50 was determined using Graph Pad Prism by a four parameter curve fit.

Data set [4] has as its target T2, HDAC3 (Homo sapiens, UniProt O15379).
T2 construct: purchased BPS Biosciences
Kind of data set: HDAC enzyme assay, HDAC3. Type of data set: biochemical. The note with it: enzyme and compound incubated 24 hours at room temperature. As for the experimental part: as §1

For data set [5], the target named is T3, HDAC2 (Homo sapiens, UniProt Q92769).
T3 construct: purchased BPS Biosciences
T3 sequence (Q92769 whole entry): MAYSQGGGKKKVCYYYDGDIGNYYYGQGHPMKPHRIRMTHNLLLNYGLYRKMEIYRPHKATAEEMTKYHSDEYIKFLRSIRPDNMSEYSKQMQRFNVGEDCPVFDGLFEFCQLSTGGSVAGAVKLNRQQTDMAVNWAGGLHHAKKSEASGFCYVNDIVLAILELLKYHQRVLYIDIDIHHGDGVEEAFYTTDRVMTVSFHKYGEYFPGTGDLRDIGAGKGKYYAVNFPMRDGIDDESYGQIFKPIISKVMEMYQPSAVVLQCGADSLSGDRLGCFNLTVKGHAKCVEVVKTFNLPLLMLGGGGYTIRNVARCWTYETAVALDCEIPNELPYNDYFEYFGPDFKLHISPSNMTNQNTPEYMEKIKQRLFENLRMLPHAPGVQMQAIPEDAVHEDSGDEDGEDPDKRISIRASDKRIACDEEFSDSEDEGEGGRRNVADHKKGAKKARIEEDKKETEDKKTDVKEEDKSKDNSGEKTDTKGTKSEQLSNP
As to the kind of experiment: HDAC enzyme assay, HDAC2. The settings on record: enzyme and compound incubated 24 hours at room temperature. It is filed as biochemical. As for the experimental part:
as §1

T2 sequence (O15379 whole entry): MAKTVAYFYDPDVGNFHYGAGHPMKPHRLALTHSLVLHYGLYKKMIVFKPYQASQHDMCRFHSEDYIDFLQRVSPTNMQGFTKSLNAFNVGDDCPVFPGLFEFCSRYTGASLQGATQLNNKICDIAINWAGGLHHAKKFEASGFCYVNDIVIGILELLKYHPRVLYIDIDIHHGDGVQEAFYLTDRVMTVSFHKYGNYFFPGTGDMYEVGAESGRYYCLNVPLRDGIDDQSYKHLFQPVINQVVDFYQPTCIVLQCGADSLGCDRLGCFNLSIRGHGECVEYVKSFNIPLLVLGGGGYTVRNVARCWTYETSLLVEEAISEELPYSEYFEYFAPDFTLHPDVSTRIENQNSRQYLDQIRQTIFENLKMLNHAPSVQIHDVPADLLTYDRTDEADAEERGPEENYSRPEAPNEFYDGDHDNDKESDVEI
T2 sequence (Q9Y618 395-489 partner limits assumed): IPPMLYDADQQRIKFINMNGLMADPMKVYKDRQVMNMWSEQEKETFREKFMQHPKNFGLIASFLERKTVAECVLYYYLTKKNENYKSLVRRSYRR

One may read the AUC as the area under the concentration-time curve, a measure of exposure. As to `Nc1ccc(-c2cccs2)cc1NC(=O)c1ccc2nc(N3CCNCC3)ccc2c1` [Comparator A], in data set [1], the AUC brain was found to be 2092 ng·h/g, the Kp was determined as 0.16 and the area under the curve (AUC) worked out at 12900 ng·h/mL.
For `Nc1ccc(-c2cccs2)cc1NC(=O)c1cnc2cc(N3CCNCC3)ccc2c1` [Comparator B], in data set [1], the AUC brain was 655 ng·h/g, the Kp was found to be 0.06 and the area under the curve (AUC) is 10800 ng·h/mL.
For orientation: Cmax means the highest concentration seen after dosing. In general, Tmax refers to the time from dosing to the highest level. What is called half-life is the time in which the quantity being followed falls by half. Low values mean fast loss, high ones slow loss. As a reminder, the AUC(0-inf) is total exposure, with the tail of the curve extrapolated. One may read the AUC(0-t) as the area under the concentration-time curve up to a stated or last time point. A higher AUC(0-t) goes with more exposure. As a reminder, the MRT inf is the average time that molecules of a dose stay in the body. The clearance is the volume of plasma or blood freed of the substance per unit of time. A high value points to a high capacity for elimination. Broadly, the IC50 is the concentration that gives 50% inhibition. A lower IC50 goes with higher potency. Take `Nc1ccc(-c2cccs2)cc1NC(=O)c1cc2ccc(N3CCNCC3)cc2cn1` [Compound 2]: in data set [2], the “brain penetrance (from brain/plasma AUC ratios)” value was “highly brain penetrant” and the Kp turned out to be 8.33. In data set [2] (brain), the AUCINF amounted to 13461 ng·h/g, the AUClast came out at 11474 ng·h/g, the peak concentration (Cmax) turned out to be 783 ng/g and the time of peak concentration (Tmax) was 1 h. The compound also showed a half-life in data set [2] (brain) of 9.3 h. In addition, in data set [2] (plasma, PK cassette), the area under the curve AUC(0-inf) is 1620 ng·h/mL, the AUC(0-t) was found to be 1560 ng·h/mL, the MRT inf was 6.97 h and the clearance is 10.3 mL/min/kg. In addition, in data set [2] (plasma, PK cassette), the half-life is 5.29 h and the Vd is 4.31 L/kg. Moreover, the midpoint of inhibition in data set [3], the IC50, lay at 3 nM. The same compound returned an IC50 in data set [4] of 43 nM. For the same compound, inhibition in data set [5] was half-maximal at 10 nM (IC50). Also, in data set [1], the AUC brain is 23283 ng·h/g, the Kp was 7.2 and the area under the curve (AUC) turned out to be 3230 ng·h/mL.
As to `Nc1ccc(-c2ccncc2)cc1NC(=O)c1cc2ccc(N3CCNCC3)cc2cn1` [Compound 3], in data set [2] (brain), the AUCINF was determined as 1439 ng·h/g, the AUClast was found to be 1237 ng·h/g, the highest level (Cmax) was 126 ng/g and the time of peak concentration (Tmax) turned out to be 0.25 h. In data set [2] (brain), the half-life was 8.63 h. Besides, in data set [2], the Kp was found to be 1.8. In data set [2] (plasma, PK cassette), this compound had an AUC(0-inf) of 799 ng·h/mL, an AUC(0-t) of 770 ng·h/mL, an MRT inf of 5.45 h and a clearance of 20.8 mL/min/kg. Moreover, in data set [2] (plasma, PK cassette), the half-life was 5.68 h and the Vd was 6.82 L/kg. The compound further yielded an IC50 in data set [3] of 7 nM. The compound further gave an IC50 in data set [4] of 74 nM. Also, the half-inhibitory concentration (IC50) in data set [5] is 8 nM.
On to `Nc1ccc(-c2ccccc2)cc1NC(=O)c1cc2ccc(N3CCNCC3=O)cc2cn1` [Compound 4], for which, in data set [2] (brain), the AUCINF stood at 390 ng·h/g, the AUClast turned out to be 319 ng·h/g, the peak level (Cmax) was 145 ng/g and the Tmax is 0.25 h. Also, the half-life in data set [2] (brain) was 1.66 h. In data set [2], the Kp worked out at 0.1. In data set [2] (plasma, PK cassette), this compound gave a total exposure AUC(0-inf) of 3820 ng·h/mL, an area under the curve AUC(0-t) of 3470 ng·h/mL, a mean residence time MRT inf of 8.72 h and a clearance of 4.37 mL/min/kg. In data set [2] (plasma, PK cassette), the half-life is 7.71 h and the Vd stood at 2.28 L/kg. Moreover, the IC50 in data set [3] amounted to 6 nM. Further, in data set [4], the IC50 was determined as 182 nM. The same compound had an IC50 in data set [5] of 8 nM.
As to `CN(C)CCNc1ccc2cc(C(=O)Nc3cc(-c4cccs4)ccc3N)ncc2c1` [Compound 5], the figures for the IC50 in data set [3], in data set [4] and in data set [5] were 2 nM, 19 nM and 6 nM, respectively.
The corresponding values for `Nc1ccc(-c2cccs2)cc1NC(=O)c1cc2ccc(NC(=O)C3CCCN3)cc2cn1` (centres unmarked) [Compound 6] are 5 nM, 121 nM and 19 nM.
As for `CN1CCCC1C(=O)Nc1ccc2cc(C(=O)Nc3cc(-c4cccs4)ccc3N)ncc2c1` (centres unmarked) [Compound 7], the figures for the IC50 in data set [3], in data set [4] and in data set [5] were 3 nM, 66 nM and 10 nM, respectively.
With `Nc1ccc(-c2ccc(F)cc2)cc1NC(=O)c1cc2ccc(N3CCNCC3)cc2cn1` [Compound 9], in data set [2], the “brain penetrance (from brain/plasma AUC ratios)” value is reported as “highly brain penetrant” and the Kp was 10.3. Further, in data set [2] (brain), the AUCINF amounted to 9607 ng·h/g, the AUClast turned out to be 9444 ng·h/g, the Cmax worked out at 1000 ng/g and the Tmax amounted to 1 h. In data set [2] (brain), this compound had a half-life of 4.4 h.
